Here are results for three sequences from publication PMC3094505 (Structure (London, England : 1993), 2011).

One may read the Kd as a measure of binding affinity in units of concentration.

Read-outs that look alike come from different tables or passages of the source. Where no end group is shown, it is not given here. Some results are limits rather than exact numbers.

The target of assay [1] is T1, CaM1-148 (full-length CaM) (Paramecium tetraurelia, UniProt P07463). The experiment in a line: Fluorescence anisotropy titration of Fl-Nav1.2IQp with CaM1-148. The class given is binding. A general note: In fluorescence polarisation assays a small probe gives low polarisation when free and higher when bound to something large.
Assay [2] has as its target T2, CaM76-148 (C-domain of CaM) (Paramecium tetraurelia, UniProt P07463). The experiment in a line: biochemical.
The target of assay [3] is T2, CaM76-148 (C-domain of CaM). The following applies: read-out: Kd, Ca^2+-saturated CaM76-148 binding, stoichiometric binding, only an upper limit for Kd, fluorescence anisotropy, pH 7.4, 22 °C.
The target in assay [4] is T1, CaM1-148 (full-length CaM). The experiment in a line: Equilibrium Ca2+ titration of CaM1-148 with Nav1.2IQp. The class given is biochemical.
The target in assay [5] is CaM1-80 (N-domain of CaM) (Paramecium tetraurelia, UniProt P07463). The experiment in a line: Equilibrium Ca2+ titration of CaM1-80 with Nav1.2IQp. It is filed as biochemical. The following applies: 6 μM CaM, 9 μM Nav1.2IQp, 22 °C; phenylalanine fluorescence.
The target in assay [6] is T1, CaM1-148 (full-length CaM). Kind of assay: Ca2+ titration of apo CaM1-148:Nav1.2IQp complex monitored by 15N/1H-HSQC. The class given is biochemical. The following applies: 15N/1H-HSQC titration, pH 6.8.
Assay [7] has as its system CaM. The following applies: apo CaM compared with (Ca^2+)4-CaM.
The test system of assay [8] is CaM. The following applies: ref Mori et al., 2000; cited from earlier work.
The subject of assay [9] is (Ca^2+)4-CaM (CaM1-148). The class given is binding, Paramecium. The following applies: Nav1.2_1913-1938 in 6-fold excess, fluorescence anisotropy (Figure S6A).

“KRKQEEVSAIVIQRAYRRYLLKQKVKK [Fl-Nav1.2IQp]”: the Kd in assay [1], in assay [2] and in [3] was not above 10 nM throughout.

Turning to KRKQEEVSAIVIQRAYRRYLLKQKVKK [Nav1.2IQp], the “effect on Ca^2+ binding to sites I and II of CaM1-148” value in assay [4] (6 μM CaM, 9 μM Nav1.2IQp, 22 °C, phenylalanine fluorescence) is reported as “little effect”. The “lowering of overall Ca^2+-binding affinity of CaM (free energy)” value in assay [4] (overall, CaM, with versus without Nav1.2IQp (Figure 2D)) came to 4.03 kcal/mol. Further, in [5], the “effect on Ca^2+ binding to sites I and II of CaM1-80” value was “little effect”. Also, the “Ca^2+-binding affinity of sites I and II relative to sites III and IV of CaM1-148 bound to Nav1.2IQp” value in assay [6] was “slightly more favorable”. Moreover, the “relative affinity for apo CaM versus (Ca^2+)4-CaM” value in assay [7] is on record as “higher affinity for apo CaM than (Ca^2+)4-CaM”.

As for “QRAYRRYLLKQKVKKVSSIYKKDKGK [Nav1.2BAA-1913-1938]”, in assay [8], the “binding to (Ca^2+)4-CaM” value is listed as “binds to (Ca^2+)4-CaM”. Moreover, the “simultaneous binding of Nav1.2IQp and Nav1.2_1913-1938 to (Ca^2+)4-CaM” value in [9] was “no evidence for simultaneous binding”.
